Common to all, as to type: cell-based
Assay [1] has as its target T1, human TLR9 (Homo sapiens, UniProt Q9NR96).
T1 construct: host or cells: HEK-Blue cells
T1 sequence (Q9NR96 26-1032): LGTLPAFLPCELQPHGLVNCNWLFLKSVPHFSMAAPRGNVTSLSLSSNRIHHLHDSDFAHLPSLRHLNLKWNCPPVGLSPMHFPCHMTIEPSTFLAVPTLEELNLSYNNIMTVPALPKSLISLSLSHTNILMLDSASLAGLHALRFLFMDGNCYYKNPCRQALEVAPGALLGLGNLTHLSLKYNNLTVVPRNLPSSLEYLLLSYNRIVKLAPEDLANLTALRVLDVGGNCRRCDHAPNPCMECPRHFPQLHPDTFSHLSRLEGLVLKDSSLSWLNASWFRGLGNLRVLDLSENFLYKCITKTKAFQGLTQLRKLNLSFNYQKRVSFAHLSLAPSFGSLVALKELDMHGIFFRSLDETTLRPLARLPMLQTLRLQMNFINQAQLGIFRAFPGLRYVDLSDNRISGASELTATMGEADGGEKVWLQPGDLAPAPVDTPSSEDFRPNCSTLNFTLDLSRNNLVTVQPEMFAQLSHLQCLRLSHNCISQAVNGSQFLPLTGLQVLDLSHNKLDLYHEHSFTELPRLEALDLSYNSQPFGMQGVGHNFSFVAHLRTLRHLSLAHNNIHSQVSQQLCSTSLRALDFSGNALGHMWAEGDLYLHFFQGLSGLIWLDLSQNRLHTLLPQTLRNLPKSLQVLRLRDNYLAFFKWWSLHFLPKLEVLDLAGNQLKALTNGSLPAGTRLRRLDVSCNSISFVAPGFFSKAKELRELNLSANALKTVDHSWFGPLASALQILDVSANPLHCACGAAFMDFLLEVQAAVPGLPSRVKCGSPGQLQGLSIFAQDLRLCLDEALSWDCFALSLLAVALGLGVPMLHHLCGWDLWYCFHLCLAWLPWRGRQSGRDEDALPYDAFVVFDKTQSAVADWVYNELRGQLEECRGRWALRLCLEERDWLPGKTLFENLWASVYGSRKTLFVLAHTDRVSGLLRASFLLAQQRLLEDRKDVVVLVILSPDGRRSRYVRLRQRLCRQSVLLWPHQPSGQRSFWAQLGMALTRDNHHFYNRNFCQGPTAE
Put plainly: TLR9 inhibition reporter assay (HEK-Blue cells, SEAP reporter, ODN2006 stimulation). The settings on record: HEK-Blue cells overexpressing human TLR9, SEAP reporter, ODN2006 5 nM. In short, it runs like this:
(§1)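 30 min RT cpd pre-incubation (0.05 nM–50 μM final dose response) → agonist: gardiquimod 7.5 μM / R848 15.9 μM / ODN2006 5 nM for TLR7/8/9 resp. → 22 h, 37° C → SEAP via detection medium. % inhibition vs agonist+DMSO and reference inhibitor controls.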
(In a reporter assay the amount or activity of a reporter protein is the signal.)

Assay [2] concerns the target T2, human TLR8 (Homo sapiens, UniProt Q9NR97).
T2 construct: host or cells: HEK-Blue cells
T2 sequence (Q9NR97 27-1041): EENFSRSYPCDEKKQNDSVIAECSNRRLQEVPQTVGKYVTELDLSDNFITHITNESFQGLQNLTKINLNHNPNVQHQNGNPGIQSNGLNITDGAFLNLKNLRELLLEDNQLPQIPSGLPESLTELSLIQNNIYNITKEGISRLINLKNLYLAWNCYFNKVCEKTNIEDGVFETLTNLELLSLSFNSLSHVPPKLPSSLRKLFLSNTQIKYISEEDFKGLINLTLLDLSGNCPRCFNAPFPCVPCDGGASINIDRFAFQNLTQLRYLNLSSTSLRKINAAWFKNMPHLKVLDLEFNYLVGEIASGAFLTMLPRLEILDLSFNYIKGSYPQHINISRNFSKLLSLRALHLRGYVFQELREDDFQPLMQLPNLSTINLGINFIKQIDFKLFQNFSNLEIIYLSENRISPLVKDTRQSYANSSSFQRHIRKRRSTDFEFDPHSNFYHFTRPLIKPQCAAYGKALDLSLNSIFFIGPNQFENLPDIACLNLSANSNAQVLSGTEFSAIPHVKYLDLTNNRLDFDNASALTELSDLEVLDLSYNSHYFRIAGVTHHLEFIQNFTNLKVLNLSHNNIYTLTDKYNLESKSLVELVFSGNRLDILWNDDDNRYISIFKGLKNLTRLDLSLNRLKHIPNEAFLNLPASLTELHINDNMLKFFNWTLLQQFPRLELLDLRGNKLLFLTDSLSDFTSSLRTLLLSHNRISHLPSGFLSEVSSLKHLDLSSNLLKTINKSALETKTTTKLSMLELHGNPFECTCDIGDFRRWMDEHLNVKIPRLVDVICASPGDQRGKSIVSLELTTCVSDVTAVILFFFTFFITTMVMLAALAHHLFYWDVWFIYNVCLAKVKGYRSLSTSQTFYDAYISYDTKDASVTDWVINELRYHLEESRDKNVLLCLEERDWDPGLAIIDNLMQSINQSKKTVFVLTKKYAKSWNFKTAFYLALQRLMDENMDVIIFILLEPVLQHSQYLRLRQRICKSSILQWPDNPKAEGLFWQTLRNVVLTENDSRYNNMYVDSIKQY
As to the kind of experiment: TLR8 inhibition reporter assay (HEK-Blue cells, SEAP reporter, R848 stimulation). The following applies: HEK-Blue cells overexpressing human TLR8, SEAP reporter, R848 15.9 μM. In short, it runs like this:
as §1

Assay [3] deals with T3, human TLR7 (Homo sapiens, UniProt Q9NYK1).
T3 construct: host or cells: HEK-Blue cells
T3 sequence (Q9NYK1 27-1049): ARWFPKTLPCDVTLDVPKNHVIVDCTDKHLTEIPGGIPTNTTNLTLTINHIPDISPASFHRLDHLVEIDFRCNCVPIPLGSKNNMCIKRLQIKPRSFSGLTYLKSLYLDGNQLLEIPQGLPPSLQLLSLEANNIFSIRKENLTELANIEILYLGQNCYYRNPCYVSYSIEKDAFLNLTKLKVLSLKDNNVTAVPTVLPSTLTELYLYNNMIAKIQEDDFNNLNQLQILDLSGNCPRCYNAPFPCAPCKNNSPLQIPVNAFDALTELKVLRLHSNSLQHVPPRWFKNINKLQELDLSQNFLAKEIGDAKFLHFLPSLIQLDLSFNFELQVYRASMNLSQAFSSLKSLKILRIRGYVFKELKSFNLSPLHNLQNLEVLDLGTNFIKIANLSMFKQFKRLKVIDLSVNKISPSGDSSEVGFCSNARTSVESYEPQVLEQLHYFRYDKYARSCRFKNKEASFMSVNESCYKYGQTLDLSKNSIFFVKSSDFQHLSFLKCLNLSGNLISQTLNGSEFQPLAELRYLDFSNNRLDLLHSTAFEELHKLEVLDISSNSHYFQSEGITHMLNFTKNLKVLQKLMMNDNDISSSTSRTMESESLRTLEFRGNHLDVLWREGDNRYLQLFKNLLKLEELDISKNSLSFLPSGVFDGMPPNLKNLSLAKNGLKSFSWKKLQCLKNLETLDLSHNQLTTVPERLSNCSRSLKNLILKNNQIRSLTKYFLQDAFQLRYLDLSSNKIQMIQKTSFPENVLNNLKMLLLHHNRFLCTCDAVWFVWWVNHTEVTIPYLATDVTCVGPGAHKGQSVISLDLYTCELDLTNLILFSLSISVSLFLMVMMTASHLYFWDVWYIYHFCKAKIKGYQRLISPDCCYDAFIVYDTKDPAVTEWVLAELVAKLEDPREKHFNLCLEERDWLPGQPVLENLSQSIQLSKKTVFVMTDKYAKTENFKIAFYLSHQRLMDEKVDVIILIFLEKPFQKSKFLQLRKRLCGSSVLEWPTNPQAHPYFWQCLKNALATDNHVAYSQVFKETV
Put plainly: TLR7 inhibition reporter assay (HEK-Blue cells, SEAP reporter, gardiquimod stimulation). The following applies: HEK-Blue cells overexpressing human TLR7, SEAP reporter, gardiquimod 7.5 μM. In short, it runs like this:
as §1

Structures are written as SMILES. pIC50: −log10 of the molar value. Some results are limits rather than exact numbers.

A word on the pIC50: it is the negative decadic logarithm of the IC50, by convention in mol/L.

For `Cc1cc(-c2c(C(C)C)c(C(=O)NC3CCN(C(C)C)CC3)nn2C)cn2ncnc12` [Example 188, 4-isopropyl-N-(1-isopropylpiperidin-4-yl)-1-methyl-5-(8-methyl-[1,2,4]triazolo[1,5-a]pyridin-6-yl)-1H-pyrazole-3-carboxamide], the pIC50 is 4.97 in assay [1], 9.24 in assay [2] and 9.15 in assay [3].
For `Cc1cc(-c2[nH]nc(C3CCC(N4CCC(N(C)C)CC4)CC3)c2C(C)C)cn2ncnc12` (single isomer, unassigned) [Example 293] the same measures were 5.18, 9.42 and 8.53.
For `CNC(=O)CN1CCC(NC(=O)c2n[nH]c(-c3cc(C)c4ncnn4c3)c2C(C)C)CC1` [compound 177] the same measures were 5.01, 8.25 and 8.49.
Consider `Cc1cc(-c2[nH]nc(C3CCC(N(C)C(=O)C4CN(C)C4)CC3)c2C(C)C)cn2ncnc12` (single isomer, unassigned) [Example 302], for which the pIC50 in assay [1] was < 4.30; in assay [2], 7.85; in assay [3], 8.03.
The matching figures for `Cc1cc(-c2[nH]nc(C(=O)N[C@H]3CC[C@H](N(CCC(C)C)CCC(C)C)CC3)c2C(C)C)cn2ncnc12` [Example 108]: 5.24, 8.35 and 8.87.
For `Cc1cc(-c2[nH]nc(-c3ccc(N)nc3)c2C(C)C)cn2ncnc12` [Example 227] the same measures were 4.74, 7.94 and 8.35.
Consider `Cc1cc(-c2[nH]nc(C(=O)NC3CCN(C(C)CS(C)(=O)=O)CC3)c2C(C)C)cn2ncnc12` (stereo not drawn) [Example 174, 4-isopropyl-5-(8-methyl-[1,2,4]triazolo[1,5-a]pyridin-6-yl)-N-(1-(1-(methylsulfonyl)propan-2-yl)piperidin-4-yl)-1H-pyrazole-3-carboxamide], for which the pIC50 in assay [1] is 4.79; in assay [2], 8.50; in assay [3], 8.74.
Turning to `Cc1cc(-c2[nH]nc(C(=O)NCC3CN(C)CCO3)c2C(C)C)cn2ncnc12` (stereo not drawn) [Example 134], the pIC50 is 4.79 in assay [1], 8.89 in assay [2] and 8.91 in assay [3].
The matching figures for `CCC(CC)N[C@H]1CC[C@H](NC(=O)c2n[nH]c(-c3cc(C)c4ncnn4c3)c2C(C)C)CC1` [Example 119]: < 4.30, 7.27 and 8.48.
For `Cc1cc(-c2[nH]nc(C3CCC(NCCN(C)C)CC3)c2C(C)C)cn2ncnc12` (single isomer, unassigned) [Example 285] the same measures were < 4.30, 8.57 and 8.11.
For `Cc1cc(-c2[nH]nc(-c3cn4c(n3)CNCC4)c2C(C)C)cn2ncnc12` [Example 219] the same measures were 4.33, 6.15 and 6.20.
With `Cc1cc(-c2[nH]nc(-c3ccc(NC(C)C)cc3)c2C(C)C)cn2ncnc12` [Example 244], the pIC50 is 4.60 in assay [1], 7.76 in assay [2] and 7.36 in assay [3].
For `Cc1cc(-c2[nH]nc(C(=O)NC3CCN(C4COC4)CC3)c2C(C)C)cn2ncnc12` [Example 70] the same measures were 5.18, 8.84 and 9.24.
The matching figures for `Cc1cc(-c2[nH]nc(C(=O)N(C)C3CCN(C)CC3)c2C(C)C)cn2ncnc12` [Example 6]: 5.96, 7.68 and 8.69.
The matching figures for `Cc1cc(-c2[nH]nc(-c3ccc4c(c3)CCN(C(C)C)C4)c2C(C)C)cn2ncnc12` [Example 246]: < 4.30, 6.81 and 7.22.
Regarding `Cc1cc(-c2[nH]nc(-c3cc4n(n3)CCNC4)c2C(C)C)cn2ncnc12` [Example 217], the pIC50 in assay [1] is 5.23; in assay [2], 8.28; in assay [3], 8.62.
For `Cc1cc(-c2[nH]nc(C3CCC(N(C)C(=O)C4CN(C)C4)CC3)c2C(C)C)cn2ncnc12` (stereo not drawn) [Example 300, N-(4-(4-isopropyl-5-(8-methyl-[1,2,4]triazolo[1,5-a]pyridin-6-yl)-1H-pyrazol-3-yl)cyclohexyl)-N,1-dimethylazetidine-3-carboxamide] the same measures were 5.00, 8.49 and 7.97.
For the compound `Cc1cc(-c2[nH]nc(C(=O)NC3CCCNC3)c2C(C)C)cn2ncnc12` (stereo not drawn) [Example 66], the results for the pIC50 in assay [1], in assay [2] and in assay [3] were 5.24, 7.77 and 8.44, respectively.
The matching figures for `Cc1cc(-c2[nH]nc(-c3ccc(N(C)C)cc3)c2C(C)C)cn2ncnc12` [Example 243]: 4.53, 8.68 and 7.79.

The values are drawn from patent US20230117470A1, “SUBSTITUTED PYRAZOLE COMPOUNDS AS TOLL RECEPTOR INHIBITORS” (BRISTOL-MYERS SQUIBB COMPANY, priority 2019, published 2023).
